# Measurements published in publication PMC4766439, “Discovery of novel PDE9 inhibitors capable of inhibiting Aβ aggregation as potential candidates for the treatment of Alzheimer’s disease” (Scientific Reports, 2016).
# Like-named read-outs stand apart in the source and are kept apart here.
# Experiments:
# PDE9A2 (181–506) = molecular target: T1, PDE9A2 (181–506) (Homo sapiens, UniProt O76083); assay: PDE activity assay, PDE9 catalytic domain; format: biochemical; details: means ± SD of at least three independent experiments
# T1 construct: PDE9A2 (181–506)
# Method: (§1) The enzymatic activities of the catalytic domains of PDE9 and other PDEs were measured by using cGMP or cAMP as substrates. The assay buffer contained 20–50 mM Tris–HCl (pH 7.5–8.0), 10 mM MgCl2 or 4 mM MnCl2, 1 mM DTT, and 10–20 nM ^3H-cGMP or ^3H-cAMP (20000–30000 cpm/assay, GE Healthcare). The reaction was performed at room temperature for 15 min and then terminated by the addition of 0.2 M ZnSO4. The addition of 0.25 M BaSO4 precipitated the generated ^3H-GMP, whereas the unreacted ^3H-cGMP remained in solution. The radioactivity in the supernatant was measured in 2.5 mL with an Ultim Gold liquid scintillation counter. […] The IC50 values were calculated by nonlinear regression method by using GraphPad Prism 5.0 Software.
# [1] = Oxygen Radical Absorbance Capacity (ORAC-FL) assay; details: Trolox as standard
# Method: The assays were performed in 75 mM PBS (pH 7.4) and all the tested compounds were dissolved in DMSO and diluted with the PBS. Trolox was used as a standard (1–10 μM final concentration). The tested compounds at different concentrations (20 μL, final concentration: 2 μM) and fluorescein (FL, 120 μL, final concentration: 300 nM) were placed in the wells of a black 96-well plate. The mixture was incubated for 10 min at 37 °C and then, APPH solution (60 μL, final concentration: 12 mM diluted by 75 mM PBS) was added rapidly. […] A blank (FL + AAPH), with PBS replacing the compounds and Trolox was used for calibration in each assay. The compounds were tested at different concentrations (0.5–10 μM). The experiments were performed in three independent runs for each sample. The fluorescence measurements were normalized to that of the blank (without antioxidant). The area under the fluorescence decay curve (AUC) was calculated using the following equation (eq. 2):
# where f0 is the fluorescence reading at 0 min and fi is the fluorescence reading at time i. The net AUC was calculated by the expression AUCsample − AUCblank. Regression equations between net AUC and Trolox concentrations were calculated. The final results were expressed in μM of Trolox equivalent/μM of pure compounds.
# [2] = PAMPA-BBB in vitro blood-brain barrier permeation assay; format: in vitro ADME; details: for Papp at 10 h, 100 μg/mL: PAMPA, read-out: Permeability; for prediction of penetration into the CNS: from PAMPA-BBB Pe
# Method: The blood–brain barrier penetration capacity of the compounds was evaluated by using the parallel artificial membrane permeation assay (PAMPA). […] The porcine brain lipid (PBL) was obtained from Avanti Polar Lipids. The donor microplate (PVDF membrane, pore size of 0.45 nm) and the acceptor microplate were from Millipore. The acceptor 96-well microplate (COSTAR) was filled with 300 μL of a PBS/EtOH mixture (7:3) and the filter membrane was impregnated with 4 μL of PBL in dodecane (20 mg/mL). The compounds were dissolved in DMSO at a concentration of 5 mg/mL and diluted with the PBS/EtOH mixture (7:3) to a concentration of 100 μg /mL. Then, 200 μL of this solution was added to the donor wells and the wells were carefully placed on the acceptor plate, which was then incubated for 10 h at 25 °C in a vibrationless environment. After the incubation, the donor plate was removed and the concentration of compounds in the acceptor wells was determined with a UV plate reader (Flexstation 3). Each sample was analyzed at five wavelengths in four wells, and at least three independent runs were performed. The results are expressed as the mean ± standard deviation. In these experiments, 13 quality control standards of known BBB permeability were included to validate the analysis set.
# where Vd is the volume in the donor well, Va is the volume in acceptor well, A is the filter area, t is the permeation time, [drug]acceptor is the absorbance of the compound in the acceptor well, and [drug]equilibrium is the theoretical equilibrium absorbance.
# PDE1B2 (10–487) = molecular target: T2, PDE1B2 (10–487) (Homo sapiens, UniProt Q01064); assay: PDE activity assay, PDE1B2 catalytic domain; format: biochemical
# T2 construct: PDE1B2 (10–487)
# Method: as §1
# PDE2A3 (580–941) = molecular target: T3, PDE2A3 (580–941) (Homo sapiens, UniProt O00408); assay: PDE activity assay, PDE2A3 catalytic domain; format: biochemical
# T3 construct: PDE2A3 (580–941)
# Method: as §1
# PDE3A (679–1087) = molecular target: T4, PDE3A (679–1087) (Homo sapiens, UniProt Q14432); assay: PDE activity assay, PDE3A catalytic domain; format: biochemical
# T4 construct: PDE3A (679–1087)
# Method: as §1
# PDE4D2 (86–413) = molecular target: T5, PDE4D2 (86–413) (Homo sapiens, UniProt Q08499); assay: PDE activity assay, PDE4D2 catalytic domain; format: biochemical
# T5 construct: PDE4D2 (86–413)
# Method: as §1
# PDE5A1 (535–860) = PDE5A1 (535–860) (Homo sapiens, UniProt O76074); assay: PDE activity assay, PDE5A1 catalytic domain; format: biochemical
# Method: as §1
# PDE7A1 (130–482) = molecular target: T6, PDE7A1 (130–482) (Homo sapiens, UniProt Q13946); assay: PDE activity assay, PDE7A1 catalytic domain; format: biochemical
# T6 construct: PDE7A1 (130–482)
# Method: as §1
# PDE8A1 (480–820) = molecular target: T7, PDE8A1 (480–820) (Homo sapiens, UniProt O60658); assay: PDE activity assay, PDE8A1 catalytic domain; format: biochemical
# T7 construct: PDE8A1 (480–820)
# Method: as §1
# PDE10A2 (448–789) = molecular target: T8, PDE10A2 (448–789) (Homo sapiens, UniProt Q9Y233); assay: PDE activity assay, PDE10A2 catalytic domain; format: biochemical
# T8 construct: PDE10A2 (448–789)
# Method: as §1
# [3] = Lipid-water distribution coefficient, shake-flask 1-octanol/water; format: physicochemical; details: 1-octanol/water (1:1), means of at least three independent tests
# Aβ1-42 [4] = molecular target: T9, Aβ1-42 (Homo sapiens, UniProt P05067); assay: ThT assay, inhibition of Cu^2+-induced Aβ1-42 aggregation; format: biochemical; details: [Aβ1-42] = 25 μM, compound 50 μM, [Cu^2+] = 25 μM, 37 °C, 24 h
# T9 construct: the Aβ1-42 stock solution was diluted with HEPES buffer; purchased Sigma
# Method: The Aβ1−42 sample (Sigma, US) was pretreated with hexafluoro-2-propanol (HFIP) and dissolved in ammonium hydroxide (1% v/v) to prepare a stock solution (2000 μM) that was aliquoted into small samples and stored at −80 °C.
# Aβ1-42 fibrils = molecular target: T10, Aβ1-42 fibrils (Homo sapiens, UniProt P05067); assay: ThT assay, disaggregation of Cu^2+-induced Aβ1-42 fibrils; format: biochemical; details: [Aβ1-42] = 25 μM, compound 50 μM, [Cu^2+] = 25 μM, additional 24 h
# T10 construct: purchased Sigma
# Method: For assaying the disaggregation of the copper (II)-induced Aβ1-42 fibrils, the Aβ1-42 stock solution was first diluted in HEPES buffer ([…], pH 6.6). The mixture of the peptide (10 μL, 25 μM final concentration) and copper (II) (10 μL, 25 μM final concentration) was then incubated at 37 °C for 24 h. Then, the test compound (10 μL, 50 μM final concentration) was added and incubated at 37 °C for an additional 24 h. Thereafter, 30 μL of the sample was diluted to a final volume of 200 μL with 50 mM glycine-NaOH buffer (pH 8.0) containing thioflavin-T (5 μM) in the dark. The detection method used was the same as that described above.
# Aβ1-42 [5] = molecular target: T9, Aβ1-42; assay: Transmission electron microscopy (TEM) assay of Aβ1-42; format: biochemical; details: [Aβ1-42] = 25 μM, compound 50 μM, [Cu^2+] = 25 μM, 37 °C, 24 h
# Method: The assays were performed as reported previously. For the TEM assay of copper (II)-induced Aβ1-42 aggregation and the disaggregation of the fibrils, the samples were pretreated as described for the ThT assay. Samples (10 μL) were placed on a carbon-coated copper/rhodium grid for 2 min. Then, each grid was stained with uranyl acetate (1%, 5 μL) for 2 min. After the excess staining solution was drained off, the specimen was transferred for imaging by a transmission electron microscope (JEOL JEM-1400).
# [6] = PBS:EtOH (70:30), mean ± SD of three independent experiments
# T1 sequence (O76083 241-566): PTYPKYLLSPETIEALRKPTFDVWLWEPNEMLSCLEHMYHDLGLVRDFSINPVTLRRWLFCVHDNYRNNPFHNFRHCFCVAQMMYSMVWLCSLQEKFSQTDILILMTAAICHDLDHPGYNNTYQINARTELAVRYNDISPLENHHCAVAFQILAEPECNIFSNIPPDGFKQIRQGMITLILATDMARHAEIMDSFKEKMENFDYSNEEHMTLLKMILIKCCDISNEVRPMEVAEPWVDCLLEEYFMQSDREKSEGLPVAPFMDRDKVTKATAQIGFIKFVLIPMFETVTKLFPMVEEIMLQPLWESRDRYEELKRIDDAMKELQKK
# T9 sequence (P05067 672-713 limits assumed): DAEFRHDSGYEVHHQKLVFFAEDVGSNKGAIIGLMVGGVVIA
# T6 sequence (Q13946 130-482): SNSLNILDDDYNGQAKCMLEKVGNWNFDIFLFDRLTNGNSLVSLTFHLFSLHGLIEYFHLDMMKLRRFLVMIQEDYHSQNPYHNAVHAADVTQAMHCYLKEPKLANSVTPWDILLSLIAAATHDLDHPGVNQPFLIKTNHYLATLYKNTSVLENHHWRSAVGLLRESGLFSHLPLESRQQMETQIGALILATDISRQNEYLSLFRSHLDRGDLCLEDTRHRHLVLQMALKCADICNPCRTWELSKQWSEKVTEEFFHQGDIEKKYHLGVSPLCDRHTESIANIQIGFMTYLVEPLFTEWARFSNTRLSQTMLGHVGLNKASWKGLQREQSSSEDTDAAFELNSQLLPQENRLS
# T2 sequence (Q01064 10-487 isoform Q01064-2): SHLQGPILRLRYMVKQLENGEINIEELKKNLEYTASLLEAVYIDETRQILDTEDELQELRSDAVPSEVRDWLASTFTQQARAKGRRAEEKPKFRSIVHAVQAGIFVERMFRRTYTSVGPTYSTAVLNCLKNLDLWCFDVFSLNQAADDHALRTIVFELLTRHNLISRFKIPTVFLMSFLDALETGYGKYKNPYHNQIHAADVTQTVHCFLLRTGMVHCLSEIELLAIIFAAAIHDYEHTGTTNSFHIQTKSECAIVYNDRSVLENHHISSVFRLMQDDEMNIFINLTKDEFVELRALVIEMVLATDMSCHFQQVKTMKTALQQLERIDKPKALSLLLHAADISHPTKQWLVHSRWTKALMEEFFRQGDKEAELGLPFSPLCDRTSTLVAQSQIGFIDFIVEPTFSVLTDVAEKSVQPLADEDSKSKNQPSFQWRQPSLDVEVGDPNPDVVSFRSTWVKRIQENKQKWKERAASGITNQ
# T7 sequence (O60658 480-820): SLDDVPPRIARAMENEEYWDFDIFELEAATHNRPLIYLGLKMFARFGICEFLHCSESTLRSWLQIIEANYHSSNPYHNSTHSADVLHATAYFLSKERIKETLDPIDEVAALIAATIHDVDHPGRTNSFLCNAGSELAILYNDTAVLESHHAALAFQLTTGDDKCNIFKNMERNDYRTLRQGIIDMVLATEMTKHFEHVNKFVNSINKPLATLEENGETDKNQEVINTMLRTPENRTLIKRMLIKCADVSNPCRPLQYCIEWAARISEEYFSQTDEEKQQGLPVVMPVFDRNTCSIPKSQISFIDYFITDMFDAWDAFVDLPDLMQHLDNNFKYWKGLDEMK
# T4 sequence (Q14432 679-1087): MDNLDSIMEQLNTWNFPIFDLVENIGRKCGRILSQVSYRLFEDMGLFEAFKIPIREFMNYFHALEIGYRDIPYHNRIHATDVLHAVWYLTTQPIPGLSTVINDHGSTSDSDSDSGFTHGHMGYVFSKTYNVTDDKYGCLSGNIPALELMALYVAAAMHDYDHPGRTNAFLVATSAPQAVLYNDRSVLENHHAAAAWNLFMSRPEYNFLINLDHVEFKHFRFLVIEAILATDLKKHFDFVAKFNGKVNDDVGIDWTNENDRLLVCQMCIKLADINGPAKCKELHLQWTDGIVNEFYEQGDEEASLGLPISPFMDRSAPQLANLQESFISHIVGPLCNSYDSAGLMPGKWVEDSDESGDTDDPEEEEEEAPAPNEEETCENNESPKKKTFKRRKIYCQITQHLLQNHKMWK
# T3 sequence (O00408 580-941): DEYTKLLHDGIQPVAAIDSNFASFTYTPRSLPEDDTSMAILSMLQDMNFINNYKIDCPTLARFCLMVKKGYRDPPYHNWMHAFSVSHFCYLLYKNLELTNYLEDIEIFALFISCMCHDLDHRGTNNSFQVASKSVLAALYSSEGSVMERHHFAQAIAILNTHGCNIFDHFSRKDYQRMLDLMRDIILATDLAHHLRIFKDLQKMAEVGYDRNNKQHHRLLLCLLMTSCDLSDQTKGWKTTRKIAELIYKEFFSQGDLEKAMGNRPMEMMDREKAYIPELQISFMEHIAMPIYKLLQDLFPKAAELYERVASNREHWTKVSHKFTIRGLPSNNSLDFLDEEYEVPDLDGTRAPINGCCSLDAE
# T5 sequence (Q08499 388-715): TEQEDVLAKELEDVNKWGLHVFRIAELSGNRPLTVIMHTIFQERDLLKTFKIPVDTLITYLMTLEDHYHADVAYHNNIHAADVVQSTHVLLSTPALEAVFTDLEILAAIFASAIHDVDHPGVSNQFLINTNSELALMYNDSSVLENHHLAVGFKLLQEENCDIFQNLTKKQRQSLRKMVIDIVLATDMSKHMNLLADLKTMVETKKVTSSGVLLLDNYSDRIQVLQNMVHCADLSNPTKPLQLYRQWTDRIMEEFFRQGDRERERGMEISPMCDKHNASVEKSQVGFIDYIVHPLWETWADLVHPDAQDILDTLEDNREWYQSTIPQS
# T8 sequence (Q9Y233 714-1055): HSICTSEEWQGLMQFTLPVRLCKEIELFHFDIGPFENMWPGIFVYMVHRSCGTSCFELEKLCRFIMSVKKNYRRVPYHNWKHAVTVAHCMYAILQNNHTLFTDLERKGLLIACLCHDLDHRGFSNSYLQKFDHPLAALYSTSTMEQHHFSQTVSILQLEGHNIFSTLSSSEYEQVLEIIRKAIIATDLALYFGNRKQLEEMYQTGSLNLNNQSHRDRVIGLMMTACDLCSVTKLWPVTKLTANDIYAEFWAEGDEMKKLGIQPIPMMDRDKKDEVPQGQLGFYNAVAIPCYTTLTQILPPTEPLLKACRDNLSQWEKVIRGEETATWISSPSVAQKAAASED
# T10 sequence (P05067 672-713 limits assumed): as the sequence (P05067 672-713 limits assumed) above
Structure (SMILES),IC50 (PDE9A2 (181–506)) [nM],ORAC [1],other results
COc1ccc(CN[C@H](C)c2nc3c(cnn3C3CCOCC3)c(=O)[nH]2)c(O)c1 [Compound 17],51 ± 2,5.13 ± 0.22 μmol of Trolox equiv/μmol tested compound,"Papp at 10 h, 100 μg/mL [2, 6]: 6.54 ± 0.76 ×10⁻⁶ cm/s; prediction of penetration into the CNS [2]: CNS+ (Compounds of high BBB permeation (CNS+) Pe > 4.7)"
C[C@H](NCc1ccccn1)c1nc2c(cnn2C2CCCC2)c(=O)[nH]1 [Compound 25],310 ± 13,0 μmol of Trolox equiv/μmol tested compound,–
COc1ccc(/C=N/[C@H](C)c2nc3c(cnn3C3CCOCC3)c(=O)[nH]2)c(O)c1 [Compound 14],12 ± 1,0.22 ± 0.12 μmol of Trolox equiv/μmol tested compound,–
C[C@@H](NCc1cc(F)ccc1O)c1nc2c(cnn2C2CCCC2)c(=O)[nH]1 [Compound 22],31 ± 1,5.52 ± 0.51 μmol of Trolox equiv/μmol tested compound,"IC50 (PDE1B2 (10–487)): 7000 nM; fold of selectivity of PDE9 over PDE1B2 (PDE1B2 (10–487)): 234 fold; IC50 (PDE2A3 (580–941)): 13000 nM; fold of selectivity of PDE9 over PDE2A3 (PDE2A3 (580–941)): 421 fold; IC50 (PDE3A (679–1087)): > 10000 nM; fold of selectivity of PDE9 over PDE3A (PDE3A (679–1087)): 323 fold; IC50 (PDE4D2 (86–413)): 11000 nM; fold of selectivity of PDE9 over PDE4D2 (PDE4D2 (86–413)): 355 fold; IC50 (PDE5A1 (535–860)): 1600 nM; fold of selectivity of PDE9 over PDE5A1 (PDE5A1 (535–860)): 50 fold; IC50 (PDE7A1 (130–482)): > 40000 nM; fold of selectivity of PDE9 over PDE7A1 (PDE7A1 (130–482)): > 1278 fold; IC50 (PDE8A1 (480–820)): > 50000 nM; fold of selectivity of PDE9 over PDE8A1 (PDE8A1 (480–820)): > 1598 fold; IC50 (PDE10A2 (448–789)): 33000 nM; logP at 30 min [3]: 1.51; Papp at 10 h, 100 μg/mL [2, 6]: 33.2 ± 4.76 ×10⁻⁶ cm/s; prediction of penetration into the CNS [2]: CNS+ (Compounds of high BBB permeation (CNS+) Pe > 4.7)"
C[C@@H](NCc1cc([N+](=O)[O-])ccc1O)c1nc2c(cnn2C2CCCC2)c(=O)[nH]1 [Compound 23],36 ± 4,1.02 ± 0.05 μmol of Trolox equiv/μmol tested compound,–
COc1cccc(CN[C@H](C)c2nc3c(cnn3C3CCCC3)c(=O)[nH]2)c1O [Compound 20],33 ± 4,3.50 ± 0.01 μmol of Trolox equiv/μmol tested compound,–
COc1ccc(/C=N/[C@H](C)c2nc3c(cnn3C3CCCC3)c(=O)[nH]2)c(O)c1 [Compound 13],35 ± 3,0.15 ± 0.01 μmol of Trolox equiv/μmol tested compound,–
C[C@@H](/N=C/c1cccc(Br)n1)c1nc2c(cnn2C2CCCC2)c(=O)[nH]1 [Compound 28],1160 ± 90,0 μmol of Trolox equiv/μmol tested compound,–
COc1ccc(O)c(CN[C@H](C)c2nc3c(cnn3C3CCCC3)c(=O)[nH]2)c1 [Compound 19],33 ± 3,3.54 ± 0.25 μmol of Trolox equiv/μmol tested compound,–
C[C@H](NCc1ccccc1O)c1nc2c(cnn2C2CCCC2)c(=O)[nH]1 [Compound 18],114 ± 7,4.51 ± 0.43 μmol of Trolox equiv/μmol tested compound,–
"COc1ccc2[nH]cc(CCNC(C)=O)c2c1 [melatonin, reference compound]",–,–,"oxygen radical absorbance capacity, ORAC-FL value [1]: 2.00 ORAC-FL units"
"Oc1c(I)cc(Cl)c2cccnc12 [CQ, clioquinol, reference compound]",–,–,"oxygen radical absorbance capacity, ORAC-FL value [1]: 0.62 ORAC-FL units; inhibitory ratio of Cu^2+-induced Aβ1-42 aggregation (ThT) (Aβ1-42 [4]): 52.5%; disaggregation of Cu^2+-induced Aβ1-42 fibrils (ThT) (Aβ1-42 fibrils): 50.9%; Aβ fibrils by TEM, disaggregation of preformed fibrils (Aβ1-42 [5]): drastically reduced the amount of Aβ fibrils; Aβ fibrils by TEM, inhibition of Cu^2+-induced aggregation (Aβ1-42 [5]): fewer Aβ fibrils were detected"
"CN(C)CCCN1c2ccccc2Sc2ccc(Cl)cc21 [Chlorpromazine, reference compound]",–,–,"Papp at 10 h, 100 μg/mL [2]: 6 ± 0.3 ×10⁻⁶ cm/s"
C[C@@H](NCc1ccccc1O)c1nc2c(cnn2C2CCCC2)c(=O)[nH]1 [Compound 15],58 ± 2,4.75 ± 0.72 μmol of Trolox equiv/μmol tested compound,–
C[C@@H](NCc1cc(Cl)ccc1O)c1nc2c(cnn2C2CCCC2)c(=O)[nH]1 [Compound 21],47 ± 5,5.84 ± 0.50 μmol of Trolox equiv/μmol tested compound,inhibitory ratio of Cu^2+-induced Aβ1-42 aggregation (ThT) (Aβ1-42 [4]): 65.7%
C[C@@H](NCc1ccccn1)c1nc2c(cnn2C2CCCC2)c(=O)[nH]1 [Compound 26],77 ± 3,0 μmol of Trolox equiv/μmol tested compound,–
C[C@@H](/N=C/c1ccccc1O)c1nc2c(cnn2C2CCCC2)c(=O)[nH]1 [Compound 12],211 ± 6,0.23 ± 0.02 μmol of Trolox equiv/μmol tested compound,–
Cc1cccc(CN[C@H](C)c2nc3c(cnn3C3CCCC3)c(=O)[nH]2)n1 [Compound 27],60 ± 2,0 μmol of Trolox equiv/μmol tested compound,–
C[C@@H](NCc1cccc(Br)n1)c1nc2c(cnn2C2CCCC2)c(=O)[nH]1 [Compound 29],38 ± 3,0 μmol of Trolox equiv/μmol tested compound,inhibitory ratio of Cu^2+-induced Aβ1-42 aggregation (ThT) (Aβ1-42 [4]): 59.1%
C[C@@H](NCc1cc(N(C)C)ccc1O)c1nc2c(cnn2C2CCCC2)c(=O)[nH]1 [Compound 24],47 ± 3,5.62 ± 0.02 μmol of Trolox equiv/μmol tested compound,–
